# In patent publication US9604931B2, “Nuclear receptor binding agents” (GTx, Inc., priority 2007, dated 2017):
# Biological target: ERα ligand binding domain (Homo sapiens, UniProt P03372)
# Assay: Competitive [3H]-estradiol binding assay, ER-α (Example 21)
# Conditions: 100 nM of compound; read-out: Percent Inhibition of [3H]-Estradiol Binding to ER-α
# Description: (§1) ER binding affinity was determined via one of the following methods:
# (§2) Briefly, the incubation mixture was filtered through a high affinity protein binding filter, and washed several times to remove any unbound radioactivity. The filter plate was air dried and sealed on the bottom.
# (§3) Nonspecific binding was subtracted from total binding to yield specific binding.
# Sequence of ERα ligand binding domain (P03372 whole entry, looked up, the tested form may be a part): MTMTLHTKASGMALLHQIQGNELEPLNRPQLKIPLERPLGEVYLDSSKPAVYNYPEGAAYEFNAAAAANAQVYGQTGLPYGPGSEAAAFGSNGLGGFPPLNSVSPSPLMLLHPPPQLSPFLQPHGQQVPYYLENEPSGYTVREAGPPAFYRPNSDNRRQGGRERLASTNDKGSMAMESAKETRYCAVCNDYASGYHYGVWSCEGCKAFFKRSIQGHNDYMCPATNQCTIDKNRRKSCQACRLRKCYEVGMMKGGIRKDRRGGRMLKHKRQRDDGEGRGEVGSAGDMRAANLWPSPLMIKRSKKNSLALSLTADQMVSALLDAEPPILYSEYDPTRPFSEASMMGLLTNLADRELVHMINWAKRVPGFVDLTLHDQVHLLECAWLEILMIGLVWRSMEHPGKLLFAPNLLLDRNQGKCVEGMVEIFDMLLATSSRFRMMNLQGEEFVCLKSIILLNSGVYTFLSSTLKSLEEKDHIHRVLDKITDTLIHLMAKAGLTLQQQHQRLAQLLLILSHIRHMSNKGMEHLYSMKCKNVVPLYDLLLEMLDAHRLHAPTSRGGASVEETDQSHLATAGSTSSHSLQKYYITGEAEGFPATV
row,Structure (SMILES),inhibition at 0.1 µM [%]
1,"O=c1c2ccc(O)cc2c(I)cn1-c1ccc(O)c(F)c1 [12n, 2-(3-fluoro-4-hydroxyphenyl)-6-hydroxy-4-iodoisoquinolin-1(2H)-one]",6.2

# Same assay, conditions: read-out: ER-α binding constant (Ki)
row,Structure (SMILES),Ki [nM]
1,"C=Cc1cn(-c2ccc(O)c(F)c2)c(=O)c2c(O)cc(O)cc12 [15c, 2-(3-fluoro-4-hydroxyphenyl)-6,8-dihydroxy-4-vinylisoquinolin-1(2H)-one]",205
2,"O=c1c2c(O)cc(O)cc2c(-c2ccccc2)cn1-c1ccc(O)cc1 [15h, 6,8-dihydroxy-2-(4-hydroxyphenyl)-4-phenylisoquinolin-1(2H)-one]",124
3,"C/C=C/c1cn(-c2ccc(O)cc2)c(=O)c2c(O)cc(O)cc12 [15i, (E)-6,8-dihydroxy-2-(4-hydroxyphenyl)-4-(prop-1-enyl)isoquinolin-1(2H)-one]",102
4,"N#Cc1cc(O)cc2c(Br)cn(-c3ccc(O)cc3)c(=O)c12 [14k, 4-bromo-6-hydroxy-2-(4-hydroxyphenyl)-1-oxo-1,2-dihydroisoquinoline-8-carbonitrile]",> 394

# Biological target: ERβ ligand binding domain (Homo sapiens, UniProt Q92731)
# Sequence (Q92731 whole entry, looked up, the tested form may be a part): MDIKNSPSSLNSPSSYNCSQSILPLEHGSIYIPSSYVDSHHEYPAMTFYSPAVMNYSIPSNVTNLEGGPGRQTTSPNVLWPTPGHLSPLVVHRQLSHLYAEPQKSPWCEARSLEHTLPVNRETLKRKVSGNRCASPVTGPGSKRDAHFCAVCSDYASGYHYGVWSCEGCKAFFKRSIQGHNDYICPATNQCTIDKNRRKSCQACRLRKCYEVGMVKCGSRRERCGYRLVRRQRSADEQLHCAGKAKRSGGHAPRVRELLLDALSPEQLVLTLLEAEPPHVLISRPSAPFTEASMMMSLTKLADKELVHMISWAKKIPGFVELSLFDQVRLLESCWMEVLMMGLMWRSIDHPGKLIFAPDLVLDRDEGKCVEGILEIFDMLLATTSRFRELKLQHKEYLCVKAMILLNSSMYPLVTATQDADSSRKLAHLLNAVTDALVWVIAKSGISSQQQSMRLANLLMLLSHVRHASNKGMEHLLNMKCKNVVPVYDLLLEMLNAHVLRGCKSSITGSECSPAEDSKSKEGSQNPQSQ
# Assay: Competitive [3H]-estradiol binding assay, ER-β (Example 21)
# Conditions: not given
# Description: as §1, §2, §3
row,Structure (SMILES),Ki Ratio (ER-α/ER-β)
1,"C=Cc1cn(-c2ccc(O)c(F)c2)c(=O)c2c(O)cc(O)cc12 [15c, 2-(3-fluoro-4-hydroxyphenyl)-6,8-dihydroxy-4-vinylisoquinolin-1(2H)-one]",51.7
2,"O=c1c2c(O)cc(O)cc2c(-c2ccccc2)cn1-c1ccc(O)cc1 [15h, 6,8-dihydroxy-2-(4-hydroxyphenyl)-4-phenylisoquinolin-1(2H)-one]",41.1
3,"C/C=C/c1cn(-c2ccc(O)cc2)c(=O)c2c(O)cc(O)cc12 [15i, (E)-6,8-dihydroxy-2-(4-hydroxyphenyl)-4-(prop-1-enyl)isoquinolin-1(2H)-one]",61.4
4,"COc1ccc(-c2cn(-c3ccc(O)cc3)c(=O)c3ccc(O)cc23)cc1 [15b, 6-hydroxy-2-(4-hydroxyphenyl)-4-(4-methoxyphenyl)isoquinolin-1(2H)-one]",8.3

# Same assay, conditions: read-out: ER-β binding constant (Ki)
row,Structure (SMILES),Ki [nM]
1,"C=Cc1cn(-c2ccc(O)c(F)c2)c(=O)c2c(O)cc(O)cc12 [15c, 2-(3-fluoro-4-hydroxyphenyl)-6,8-dihydroxy-4-vinylisoquinolin-1(2H)-one]",3.96
2,"N#Cc1cc(O)cc2c(Br)cn(-c3ccc(O)cc3)c(=O)c12 [14k, 4-bromo-6-hydroxy-2-(4-hydroxyphenyl)-1-oxo-1,2-dihydroisoquinoline-8-carbonitrile]",46
3,"COc1ccc(-c2cn(-c3ccc(O)cc3)c(=O)c3c(O)cc(O)cc23)cc1 [15g, 6,8-dihydroxy-2-(4-hydroxyphenyl)-4-(4-methoxyphenyl)isoquinolin-1(2H)-one]",0.48

# Same assay, conditions: read-out: Percent Inhibition of [3H]-Estradiol Binding to ER-β
row,Structure (SMILES),inhibition at 0.1 µM [%]
1,"O=c1c2ccc(O)cc2c(I)cn1-c1ccc(O)c(F)c1 [12n, 2-(3-fluoro-4-hydroxyphenyl)-6-hydroxy-4-iodoisoquinolin-1(2H)-one]",8.7

# Biological target: ER-α (Rattus norvegicus (Rat), UniProt P06211)
# Assay: not given
# Format: cell-based
# Conditions: 100 nM compound compared to 1 nM estradiol
# Description: COS or 293 cells were plated in DME without phenol red+10% cs FBS at 90,000 cells per well in 24 well plates, and were transfected with 0.25 μg of the vector “ERE-LUC”, where a firefly luciferase gene was driven by two estrogen responsive elements and 0.02 μg of the control CMV-LUC, Renilla where a luciferase gene was driven by a CMV promoter. […] All the receptors were cloned from rat tissue into the PCR3.1 vector backbone. Twenty four hours post transfection, cells were treated with compounds of this invention, estrogen, DHT, and other NRBAs or combinations thereof. Cells were harvested 48 hrs after transfection, and assayed for firefly and Renilla luciferase activity.
row,Structure (SMILES),"Estradiol activity at 100 nM of NRBA, ER-α [%]"
1,"C=Cc1cn(-c2ccc(O)cc2)c(=O)c2c(O)cc(O)cc12 [14l, 6,8-dihydroxy-2-(4-hydroxyphenyl)-4-vinylisoquinolin-1(2H)-one]",50
2,"COc1cc(O)c2c(=O)n(-c3ccc(O)cc3)ccc2c1C#N [12q, 8-hydroxy-2-(4-hydroxyphenyl)-6-methoxy-1-oxo-1,2-dihydroisoquinoline-5-carbonitrile]",25
3,"COc1cc(O)c2c(=O)n(-c3ccc(O)cc3)cc(Br)c2c1 [12v, 4-bromo-8-hydroxy-2-(4-hydroxyphenyl)-6-methoxyisoquinolin-1(2H)-one]",17

# Biological target: ER-β (Rattus norvegicus (Rat), UniProt Q62986)
# Sequence (Q62986 whole entry): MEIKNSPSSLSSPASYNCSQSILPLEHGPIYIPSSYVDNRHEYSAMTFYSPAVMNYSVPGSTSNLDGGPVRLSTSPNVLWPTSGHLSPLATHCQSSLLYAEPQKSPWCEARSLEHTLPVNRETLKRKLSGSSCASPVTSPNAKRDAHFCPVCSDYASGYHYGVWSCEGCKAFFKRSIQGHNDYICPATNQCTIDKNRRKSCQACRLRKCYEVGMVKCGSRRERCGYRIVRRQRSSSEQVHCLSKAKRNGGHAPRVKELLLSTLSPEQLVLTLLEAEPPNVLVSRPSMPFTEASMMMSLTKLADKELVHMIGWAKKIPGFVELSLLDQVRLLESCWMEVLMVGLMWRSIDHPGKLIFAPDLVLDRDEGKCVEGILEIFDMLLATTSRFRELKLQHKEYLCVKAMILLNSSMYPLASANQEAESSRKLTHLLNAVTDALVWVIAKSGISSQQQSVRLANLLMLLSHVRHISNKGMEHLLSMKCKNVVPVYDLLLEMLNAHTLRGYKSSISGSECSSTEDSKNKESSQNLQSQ
# Assay: ER-β transactivation (ERE-LUC) in COS or 293 cells
# Format: cell-based
# Conditions: HEK293, 48 h, read-out: Estradiol activity at 100 nM of NRBA, ER-β
row,Structure (SMILES),activation at 0.1 µM [%]
1,"COc1cc(O)c2c(=O)n(-c3ccc(O)cc3)ccc2c1C#N [12q, 8-hydroxy-2-(4-hydroxyphenyl)-6-methoxy-1-oxo-1,2-dihydroisoquinoline-5-carbonitrile]",10
2,"COc1cc(O)c2c(=O)n(-c3ccc(O)cc3)cc(Br)c2c1 [12v, 4-bromo-8-hydroxy-2-(4-hydroxyphenyl)-6-methoxyisoquinolin-1(2H)-one]",10

# Same assay, conditions: HEK293, 48 h, read-out: Estradiol activity at 100 nM of NRBA, ER-β, 100 nM compound compared to 1 nM estradiol
row,Structure (SMILES),activation at 0.1 µM [%]
1,"C=Cc1cn(-c2ccc(O)cc2)c(=O)c2c(O)cc(O)cc12 [14l, 6,8-dihydroxy-2-(4-hydroxyphenyl)-4-vinylisoquinolin-1(2H)-one]",52.7

# System: rat aorta rings
# Assay: Rat aortic ring relaxation
# Conditions: 10^-6 PE constriction
# Text: Experimental protocol. Equipment used in these studies included a 4-tissue bath system with reservoirs and circulators (RadnotiGlass Technology, Monrovia, Calif.), DSI/Ponemah tissue force analyzer 7700 (Valley View, Ohio), and iWorx/CB Sciencesforce transducers FT-302. The 250 g rats were anesthetized with isoflurane to produce deep anesthesia. The chest of the rat was opened, and about 3 cm length of aorta was removed and placed in a Petri dish containing room temperature Krebs salt solution (KSS, in mM: 120 NaCl, 5 KCl, 1.2 MgSO4.7H20, 2.5 CaCl2.2H2O, 1 KH2PO4, 25 NaHCO3, and 11 glucose). Fat and connective tissue were removed from the aorta taking care not to stretch the vessel. The aorta was then divided into 3-mm-wide rings. Triangular wire holders were inserted through the lumen of the vessel and connected to the force transducer and tissue holder rod in the vessel bath.
# Analog-to-digital conversions of force waveforms were accomplished with a DSI/Ponemah tissue force analyzer 7700. The converted data were automatically analyzed with Ponemah Physiology-Smooth Muscle software. All data are summarized as means±standard error. Differences between means were assessed by a conventional ANOVA. This was followed by Student's test. P<0.05 was considered to be statistically significant.
# The tension on the rings was adjusted to 1.0 g passive force using the tension adjustment dial for each transducer and allowed to equilibrate for 60 min in the bath with a 95% O2-5% CO2 gas mixture. The rings were washed with fresh buffer every 20 min. Passive force was readjusted to 1.0 g as needed during this period. When rings were stable at 1.0 g of passive force, the baseline was calculated.
# Phenylephrine (PE) at a final concentration of […] was added to the bath to contract the ring, and force was allowed to stabilize for 10 min. Then acetylcholine (ACH) at a final concentration of 10^−5 M was added to the precontracted rings to test for endothelial integrity […]. After the initial test for vessel viability and endothelial integrity, the rings were washed three times for 10 min with buffer, allowing it to equilibrate to active force stabilized at 1 g.
# Cumulative concentration-response curves to NRBAs were created by increasing the NRBAs concentration in the tissue bath by successive addition of appropriate dilutions of stock solutions to achieve final bath concentrations of 300 nM to 0.15 mM NRBAs.
# Table 10 summarizes EC50 values and maximal % decrease of the 10^−6 PE constriction of the aortic ring for individual NRBAs tested
row,Structure (SMILES),Mean of Maximal % Decrease of the PE constriction of the aortic ring [%]
1,"C=Cc1cn(-c2ccc(O)cc2)c(=O)c2c(O)cc(O)cc12 [14l, 6,8-dihydroxy-2-(4-hydroxyphenyl)-4-vinylisoquinolin-1(2H)-one]",45.01

# Same assay, conditions: Rattus norvegicus; 10^-6 PE constriction
row,Structure (SMILES),EC50 [nM]
1,"C=Cc1cn(-c2ccc(O)cc2)c(=O)c2c(O)cc(O)cc12 [14l, 6,8-dihydroxy-2-(4-hydroxyphenyl)-4-vinylisoquinolin-1(2H)-one]",19800

# System: Rat Aortic Smooth Muscle Cells (RASMC)
# Assay: RASMC cell proliferation assay (WST-1)
# Format: cell-based
# Conditions: Rattus norvegicus; inhibitory effect sigmoid Emax model; read-out: EC50 for inhibition of RASMC proliferation
# Description: EC50 values were calculated using WinNonLin 5.0.1 using the inhibitory effect sigmoid Emax model.
row,Structure (SMILES),EC50 [nM]
1,"C=Cc1cn(-c2ccc(O)cc2)c(=O)c2c(O)cc(O)cc12 [14l, 6,8-dihydroxy-2-(4-hydroxyphenyl)-4-vinylisoquinolin-1(2H)-one]",9630

# Same assay, conditions: concentration between 10-30 μM
row,Structure (SMILES),Proliferation of RASMC
1,"C=Cc1cn(-c2ccc(O)cc2)c(=O)c2c(O)cc(O)cc12 [14l, 6,8-dihydroxy-2-(4-hydroxyphenyl)-4-vinylisoquinolin-1(2H)-one]",inhibited the proliferation of RASMC in a dose-dependent manner
2,"COc1ccc(-c2coc3cc(O)cc(O)c3c2=O)cc1 [Biochanin A, reference compound]",inhibited the proliferation of RASMC in a dose-dependent manner

# Same assay, conditions: inhibitory effect sigmoid Emax model; read-out: EC50 for inhibition of RASMC proliferation
row,Structure (SMILES),EC50 [nM]
1,"COc1ccc(-c2coc3cc(O)cc(O)c3c2=O)cc1 [Biochanin A, reference compound]",9790

# System: ARPE-19 cells
# Assay: Fluorescent detection of intracellular ROS
# Format: cell-based, Human
# Conditions: 150 μM tBH
# Text: Cells were allowed to adhere overnight. […] Removed and washed cells once with HBSS. […] Each drug concentration was done in triplicates.
Structure (SMILES),Inhibition of ROS formation,Prevention of ROS formation / oxidative stress
"C=Cc1cn(-c2ccc(O)cc2)c(=O)c2c(O)cc(O)cc12 [14l, 6,8-dihydroxy-2-(4-hydroxyphenyl)-4-vinylisoquinolin-1(2H)-one]",more than 50%,protected ARPE-19 cells from oxidative damage
